# Measured values published in publication PMC11879692, “PDE4 inhibitor rolipram represses hedgehog signaling via ubiquitin-mediated proteolysis of GLI transcription factors to regress breast cancer” (The Journal of Biological Chemistry, 2025).
# Tests used:
# [1] = Serum biochemical parameters (kidney and liver function) of tumor-induced mice; format: in vivo, BALB/c mice; conditions: mean ± SD (n = 3); for Kidney function Creatinine: Tumor 0.93 ± 0.15, Normal 0.32 ± 0.06; for Liver function Albumin: Tumor 3.56 ± 0.25, Normal 2.36 ± 0.15; for Liver function Protein: Tumor 4.93 ± 0.15, Normal 5.16 ± 0.20; for Kidney function Urea: Tumor 36.89 ± 3.43, Normal 17.30 ± 2.25
# Method: (§1) Solid tumors were developed in BALB/c mice (n = 3) except the control group (group I) by injecting 1 × 10^4 viable 4T1 (RRID: CVCL_0125) mice breast carcinoma cells (resuspended in 50 μl of PBS) into the inguinal fourth mammary fat pad, and the tumor was allowed to develop for 14 days ([37], [38]). Mice were randomly divided into three groups, viz., untreated tumor (group II), mice treated intraperitoneally with 1 mg//kg bodyweight of rolipram (group III), and mice receiving 5 mg/kg bodyweight of rolipram, intraperitoneally (group IV) ([39], [40]). After 14 days, the mice were sacrificed. Lung, kidney, liver, serum, and the tumors were collected for further experiments ([15]).
# The total protein in mouse serum was measured by biuret method, which relies on formation of reddish-violet color in alkaline copper solution ([46]). The absorptivity of the colored solution was measured at 570 nm and compared with known protein standards to determine the level of total protein in the serum. The serum urea level of mouse was determined using urea kit (Coral Clinical Systems; catalog no.: 1102240075), which relies on the reaction of phenolic chromogen and hypochlorite with the ammonia formed from urea ([47]). The absorbance of the test sample (AbsT) and standard sample (AbsS) was recorded at 570 nm, and the concentration of urea was determined by the formula urea (mg/dl) = (AbsT/AbsS) × 40, according to the manufacturer’s protocol. Level of serum creatinine was measured using creatinine kit (Coral Clinical Systems; catalog no.: 1101060035). Briefly, this kit utilizes the formation of a colored complex because of reaction between alkaline picric acid solution and creatinine ([48]). The initial absorbance of the test sample (Abs1T) and standard sample (Abs1S) was measured at 520 nm after 30 s of incubation, and the final absorbance of the test sample (Abs2T) and standard sample (Abs2S) was measured exactly after 60 s. The formula, creatinine (mg/dl) = (Abs2T – Abs1T)/(Abs2S – Abs1S) × 2, was used to determine the concentration of creatinine. Activities of AST and ALT were evaluated from the serum of mice using AST assay kit (catalog no.: MAK055) and ALT assay kit (catalog no.: MAK052) from Sigma–Aldrich, following the manufacturer’s protocol. The estimation of AST activity is based on the production of glutamate by the activity of AST present in the serum samples. The absorbance of the colored product was measured at 450 nm and compared with known standard samples to determine the activity ([49]). Similarly, the ALT assay kit is based on the production of pyruvate in the presence of ALT in serum. The activity of the ALT in mouse serum was determined by measuring the absorbance of the colored product at 570 nm and comparing with the known standard samples ([50]). All the spectrophotometric analyses were carried out in Bio-Rad iMark Microplate Reader (RRID: SCR_023799).
# [2] = Bodyweight of tumor-bearing mice; format: in vivo, BALB/c mice; conditions: intraperitoneally
# Method: as §1
# [3] = test system: MCF-7 cells; assay: Annexin V-FITC and PI double staining; format: cell-based, human; conditions: MCF-7, IC50 dose, 24 h
# Method: (§2) To analyze if the cells have undergone necrosis or apoptosis because of 24 h of rolipram treatment, cells were double stained with Annexin V-FITC and PI using BD Pharmingen Annexin V:FITC Apoptosis Detection Kit (BD Biosciences; catalog no.: BD556547) using the manufacturer’s protocol. The data obtained from BD LSRFortessa flow cytometer (RRID: SCR_019600) were analyzed using BD FACSDiva 9.0 software ([31], [32]) (RRID: SCR_001456).
# [4] = test system: MDA-MB-231 cells; assay: Annexin V-FITC and PI double staining; format: cell-based, human; conditions: MDA-MB-231, IC50 dose, 24 h
# Method: as §2
# [5] = test system: MCF-7 cells; assay: Western blot analysis of protein expression; format: cell-based, human
# Method: After treatment of cells with rolipram, proteins were extracted from cells by lysing the cells with radioimmunoprecipitation assay buffer, comprising of 150 mM NaCl, 1% Triton X-100, 0.5% sodium deoxycholate, and 0.1% SDS. Equal amount of proteins (40 μg) were resolved using SDS-PAGE before transferring onto nitrocellulose membrane (Immobilon-NC Transfer Membrane; Merck Millipore; catalog no.: HATF00010). The membranes were then incubated overnight with primary antibody at a dilution of 1:1000 at 4°C followed by incubation with secondary antibodies at a dilution of 1:5000 for 2 h at room temperature. Immune detection was performed using femtoLUCENT PLUS-HRP (G-Biosciences; catalog no.: 786-003), and the image was obtained from the Bio-Rad ChemiDoc XRS+ system. Analysis of protein expression was carried out using Bio-Rad Image Lab software (RRID: SCR_014210) and National Institutes of Health ImageJ software ([34]) (RRID: SCR_003070). All protein expressions were normalized against β-tubulin (loading control).
# [6] = test system: MCF-7 cells; assay: Flow cytometric analysis of DNA content (PI); format: cell-based, human; conditions: MCF-7, IC50 dose, 24 h, vs control
# Method: (§3) After treating the cells with rolipram for 24 h, cells were stained with PI (BD Pharmingen PI/RNase Staining Buffer; BD Biosciences; catalog no.: BD550825), following fixing of cells with 70% ethanol for 1 h at 4°C and permeabilization with 0.1% Triton X-100 (Sigma–Aldrich; catalog no.: X100). The cells were then analyzed using BD LSRFortessa flow cytometer (RRID: SCR_019600), and the data were analyzed using BD FACSDiva 9.0 software ([30]) (RRID: SCR_001456).
# [7] = test system: MDA-MB-231 cells; assay: Flow cytometric analysis of DNA content (PI); format: cell-based, human; conditions: MDA-MB-231, IC50 dose, 24 h, vs control
# Method: as §3
structure (smiles),measurement,setting,value
"COc1ccc(C2CNC(=O)C2)cc1OC1CCCC1 (stereo not shown) [rolipram, Rolipram]",Kidney function Creatinine,[1]; Tumor + 1 mg/kg,0.45 ± 0.08 mg/dL
same,Liver function Albumin,[1]; Tumor + 1 mg/kg,2.73 ± 0.15 g/dL
same,Liver function Protein,[1]; Tumor + 1 mg/kg,5.30 ± 0.10 g/dL
same,Kidney function Urea,[1]; Tumor + 1 mg/kg,20.39 ± 3.06 mg/dL
same,Liver function AST,"[1]; Tumor + 1 mg/kg, Tumor 135.85 ± 11.7, Normal 85.23 ± 7.97",119.69 ± 10.1 U/L
same,Kidney function Creatinine,[1]; Tumor + 5 mg/kg,0.50 ± 0.05 mg/dL
same,Liver function Albumin,[1]; Tumor + 5 mg/kg,2.66 ± 0.05 g/dL
same,Liver function Protein,[1]; Tumor + 5 mg/kg,4.90 ± 0.20 g/dL
same,Kidney function Urea,[1]; Tumor + 5 mg/kg,22.08 ± 2.34 mg/dL
same,Liver function ALT,"[1]; Tumor + 5 mg/kg, Tumor 55.77 ± 2.38, Normal 43.31 ± 0.88",55.69 ± 4.97 U/L
same,bodyweight of tumor-bearing mice,[2]; 1 mg/kg bodyweight,No significant changes
same,bodyweight of tumor-bearing mice,[2]; 5 mg/kg bodyweight,No significant changes
same,increase in the dead cell population,[3],8.1%
same,increase in the dead cell population,[4],5.2%
same,reduction of MMP9 expression,"[5]; MCF-7 (hormone-responsive cells), 48 h",fourfold
same,downregulation of expression of MMP2,"[5]; MCF-7, IC50 dose",twofold
same,levels of phospho-Akt,"[5]; MCF-7, IC50 dose",reduced
same,levels of phosphorylated-GSK3β,"[5]; MCF-7, IC50 dose",reduced levels
same,level of GLI2FL,"[5]; MCF-7, IC50 dose, time course",remained unchanged
same,level of GLI2R,"[5]; MCF-7, IC50 dose, time course",increased with time
same,level of GLI3R,"[5]; MCF-7, IC50 dose, time course",increased with time
same,levels of PKA,"[5]; MCF-7, IC50 dose, time course",increased levels
same,level of GLI1,"[5]; MCF-7, IC50 dose, time-dependent",reduced
same,elevated expression of PTEN,"[5]; MCF-7, IC50 dose, within 12 h",threefold
same,levels of vimentin,"[5]; MCF-7, after 48 h",decrease
same,levels of GLI proteins,"[5]; MCF-7, cotreatment with H89 (10 μM), 24 h, vs control and H89 only",unaltered
same,repressor forms of GLI2 and GLI3,"[5]; MCF-7, in combination with TAK-243 (0.1 μM), 24 h",failed to produce the repressor forms
same,"effects on expressions of MMPs, E-cadherin, and vimentin","[5]; MCF-7, in the presence of TAK-243",failed to exert any of the aforementioned effects
same,elevation of level of E-cadherin,"[5]; MCF-7, within 24 h",twofold
same,G0/G1 cell population,[6],significantly increased
same,G0/G1 cell population,[7],significantly increased
